Assays:
[1] = target: T1, NDM-1 (Klebsiella pneumoniae, UniProt C7C422); conditions: metallo-β-lactamase NDM-1; cited from earlier work
[2] = target: T1, NDM-1; conditions: cited from earlier work
[3] = test system: Enterobacter cloacae strain harbouring IMI-2 gene; assay: Antibiotic susceptibility (MIC) of the IMI-2 positive clinical strain; assay type: cell-based; parameters: MIC: unit not given beside the values; conditions: for resistance of the strain: IMI-2 positive Enterobacter cloacae strain

T1 sequence (C7C422 29-270 limits assumed): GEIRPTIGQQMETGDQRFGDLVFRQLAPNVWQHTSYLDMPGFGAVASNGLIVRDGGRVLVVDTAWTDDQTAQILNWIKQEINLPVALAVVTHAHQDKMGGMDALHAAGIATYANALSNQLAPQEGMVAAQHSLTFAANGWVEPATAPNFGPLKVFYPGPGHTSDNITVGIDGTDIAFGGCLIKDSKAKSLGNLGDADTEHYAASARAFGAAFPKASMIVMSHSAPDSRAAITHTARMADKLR

## C[C@H]1[C@H](NC(=O)/C(=N\OC(C)(C)C(=O)O)c2csc(N)n2)C(=O)N1S(=O)(=O)O [aztreonam]
[1]
  hydrolysis by NDM-1: can hydrolyze all β-lactams except aztreonam

## CO/N=C(\C(=O)N[C@@H]1C(=O)N2C(C(=O)O)=C(COC(C)=O)CS[C@H]12)c1csc(N)n1 [cefotaxime]
[2]
  binding to NDM-1 compared to VIM-2: tighter binding

## CO/N=C(\C(=O)N[C@@H]1C(=O)N2C(C(=O)O)=C(COC(N)=O)CS[C@H]12)c1ccco1 [cefuroxime]
[2]
  binding to NDM-1 compared to VIM-2: tighter binding

## CC(=O)OCC1=C(C(=O)O)N2C(=O)[C@@H](NC(=O)Cc3cccs3)[C@H]2SC1 [cephalothin]
[2]
  binding to NDM-1 compared to VIM-2: tighter binding

## C[C@@H](O)[C@H]1C(=O)N2C(C(=O)O)=C(S[C@@H]3CN[C@H](C(=O)Nc4cccc(C(=O)O)c4)C3)[C@H](C)[C@H]12 [ertapenem]
[3]
  resistance of the strain: highly resistant
[3]; IMI-2 positive Enterobacter cloacae strain isolated from a patient in intensive care unit
  MIC: > 256

## C[C@@H](O)[C@H]1C(=O)N2C(C(=O)O)=C(S[C@@H]3CN[C@H](C(=O)N(C)C)C3)[C@H](C)[C@H]12 [meropenem]
[3]
  resistance of the strain: highly resistant

## trimetoprim/sulfa
[3]
  resistance of the strain: not, however, resistant

From US9593381B2, “Method and kit for detecting carbapenemase genes” (Amplidiag OY, priority 2009, dated 2017)
